Measured values from patent publication US20250195536A1, “BICYCLOOCTANE KRAS INHIBITORS” (Incyte Corporation, priority 2023, published 2025).

Legend:
[1] = Caco2 assay (permeability, Papp A-B); type: in vitro ADME; conditions: human, Caco-2, absorptive direction (A-B), 50 μM test compound, 4% BSA in receiver
Procedure: Caco-2 cells are grown at 37° C. in an atmosphere of 5% CO2 in DMEM growth medium supplemented with 10% (v/v) fetal bovine serum, 1% (v/v) nonessential amino acids, penicillin (100 U/mL), and streptomycin (100 μg/mL). Confluent cell monolayers are subcultured every 7 days or 4 days for Caco-2 by treatment with 0.05% trypsin containing […]. Caco-2 cells are seeded in 96-well Transwell plates. The seeding density for Caco-2 cells is 14,000 cells/well. DMEM growth medium is replaced every other day after seeding. Cell monolayers are used for transport assays between 22 and 25 days for Caco-2 cells.
Cell culture medium is removed and replaced with HBSS. To measure the TEER, the HBSS is added into the donor compartment (apical side) and receiver compartment (basolateral side). The TEER is measured by using a REMS Autosampler to ensure the integrity of the cell monolayers. Caco-2 cell monolayers with TEER values 300 Ω·cm^2 are used for transport experiments. To determine the Papp in the absorptive direction (A-B), solution of test compound (50 μM) in HBSS is added to the donor compartment (apical side), while HBSS solution with 4% BSA is added to the receiver compartment (basolateral side). The apical volume was 0.075 mL, and the basolateral volume is 0.25 mL. The incubation period is 120 min. at 37° C. in an atmosphere of 5% CO2. At the end of the incubation period, samples from the donor and receiver sides are removed and an equal volume of MeCN is added for protein precipitation. The supernatants are collected after centrifugation (3000 rpm, Allegra X-14R Centrifuge from Beckman Coulter, Indianapolis, IN) for LCMS analysis. The permeability value is determined according to the equation:
Papp(cm/s)=(F*VD)/(SA*MD),
where the flux rate (F, mass/time) is calc. from the slope of cumulative amounts of compound of interest on the receiver side, SA is the surface area of the cell membrane, VD is the donor volume, and MD is the initial amount of the solution in the donor chamber.
The symbol “+” indicates a Caco-2 value of ≤0.5, “++” indicates a Caco-2 value of >0.5 but ≤1; and “+++” indicates a Caco-2 value of >1. “NA” indicates Caco-2 value not available.

[2] = molecular target: KRAS G12D (Homo sapiens, UniProt P01116, G12D); experiment: GDP-GTP exchange assay (KRAS G12D); type: biochemical; conditions: bodipy-GDP/GppNHp exchange with SOS1; 4 h pre-incubation, 2 h reaction;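 also: one dagger IC50 up to 100 nM and two daggers above 100 nM up to 1 μM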
Procedure: (§1) The inhibitor potency of the exemplified compounds was determined in a fluorescence based guanine nucleotide exchange assay, which measures the exchange of bodipy-GDP (fluorescently labeled GDP) for GppNHp (Non-hydrolyzable GTP analog) to generate the active state of KRAS in the presence of SOS1 (guanine nucleotide exchange factor). Inhibitors were serially diluted in DMSO and a volume of 0.1 μL was transferred to the wells of a black low volume 384-well plate. 5 μL/well volume of bodipy-loaded KRAS G12D diluted to 2.5 nM in assay buffer (25 mM Hepes pH 7.5, 50 mM NaCl, 10 mM MgCl2 and 0.01% Brij-35) was added to the plate and pre-incubated with inhibitor for 4 h at r.t. Appropriate controls (enzyme with no inhibitor or with a G12D inhibitor) were included on the plate. The exchange was initiated by the addition of a 5 μL/well volume containing 1 mM GppNHp and 300 nM SOS1 in assay buffer. The 10 μL/well reaction concentration of the bodipy-loaded KRAS G12D, GppNHp, and SOS1 were 2.5 nM, 500 μM, and 150 nM, respectively. The reaction plates were incubated at r.t. for 2 h, a time estimated for complete GDP-GTP exchange in the absence of inhibitor. For the KRAS G12V mutant, similar guanine nucleotide exchange assays were used with 2.5 nM as final concentration for the bodipy loaded KRAS proteins and 3 h incubation after adding GppNHp-SOS1 mixture. A cyclic peptide described to selectively bind G12D mutant (Sakamoto et al., BBRC 484.3 (2017), 605-611) or internal compounds with confirmed binding were used as positive controls in the assay plates. Fluorescence intensities were measured on a PheraStar plate reader instrument (BMG Labtech) with excitation at 485 nm and emission at 520 nm.
(§2) Either GraphPad prism or Genedata Screener SmartFit was used to analyze the data. The IC50 values were derived by fitting the data to a four parameter logistic equation producing a sigmoidal dose-response curve with a variable Hill coefficient.
(§3) The symbol “⬆” indicates IC50 100 nM, “⬆⬆” indicates IC50 >100 nM but ≤1 μM; and “⬆⬆⬆” indicates IC50 is >1 μM but ≤5 μM, “⬆⬆⬆⬆” indicates IC50 is >5 μM but ≤10 μM. “NA” indicates IC50 not available.

[3] = molecular target: KRAS G12V (Homo sapiens, UniProt P01116, G12V); experiment: GDP-GTP exchange assay (KRAS G12V); type: biochemical; conditions: bodipy-GDP/GppNHp exchange with SOS1; 3 h incubation after GppNHp-SOS1;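 also: one dagger IC50 up to 100 nM and two daggers above 100 nM up to 1 μM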
Procedure: as §1, §2, §3

KRAS G12V, sequence (P01116 1-188 isoform P01116-2 G12V): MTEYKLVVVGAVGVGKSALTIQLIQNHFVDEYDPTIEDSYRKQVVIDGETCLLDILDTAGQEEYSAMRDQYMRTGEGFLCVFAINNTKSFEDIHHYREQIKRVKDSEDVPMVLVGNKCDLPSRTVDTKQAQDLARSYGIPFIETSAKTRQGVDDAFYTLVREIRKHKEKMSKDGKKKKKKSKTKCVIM
KRAS G12D, sequence (P01116 1-188 isoform P01116-2 G12D): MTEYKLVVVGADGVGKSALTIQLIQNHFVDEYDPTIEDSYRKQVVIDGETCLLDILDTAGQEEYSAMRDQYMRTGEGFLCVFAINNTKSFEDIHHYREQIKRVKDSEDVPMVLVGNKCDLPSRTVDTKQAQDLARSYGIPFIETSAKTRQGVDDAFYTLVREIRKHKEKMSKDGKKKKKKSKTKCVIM

Compound: Cc1nc2c(F)c(-c3cccc(Cl)c3Cl)c(CCC#N)cc2c2c1cc([C@H]1[C@H]3C[C@H](CN(c4ccccc4)C3)N1C(=O)C1CC1)n2[C@H]1[C@H]2CN[C@@H]1C2 (atropisomer, axis not shown; (Ra)) [Example 1, 3-((Ra)-1-((1R,4R,5S)-2-Azabicyclo[2.1.1]hexan-5-yl)-2-((1 S,5R,7R)-6-(cyclopropanecarbonyl)-3-phenyl-3,6-diazabicyclo[3.2.1]octan-7-yl)-7-(2,3-dichlorophenyl)-6-fluoro-4-methyl-1H-pyrrolo[3,2-c]quinolin-8-yl)propanenitrile]
- Papp A→B at 120 min, 50 μM [1]: ≤ 0.5 ×10⁻⁶ cm/s
- G12D_exchange (KRAS_G12D exchange assay IC50) [2]: ††
- G12V_exchange (KRAS_G12V exchange assay IC50) [3]: †

Compound: Cc1nc2c(F)c(-c3cccc(Cl)c3Cl)c(CCC#N)cc2c2c1cc([C@H]1[C@H]3C[C@H](CN(c4ccccc4F)C3)N1C(=O)C1CC1)n2[C@H]1[C@H]2CN[C@@H]1C2 (atropisomer, axis not shown; (Ra)) [Example 2, 3-((Ra)-1-((1R,4R,5S)-2-Azabicyclo[2.1.1]hexan-5-yl)-2-((1 S,5R,7R)-6-(cyclopropanecarbonyl)-3-(2-fluorophenyl)-3,6-diazabicyclo[3.2.1]octan-7-yl)-7-(2,3-dichlorophenyl)-6-fluoro-4-methyl-1H-pyrrolo[3,2-c]quinolin-8-yl)propanenitrile]
- Papp A→B at 120 min, 50 μM [1]: ≤ 0.5 ×10⁻⁶ cm/s
- G12D_exchange (KRAS_G12D exchange assay IC50) [2]: †
- G12V_exchange (KRAS_G12V exchange assay IC50) [3]: †

Compound: Cc1nc2c(F)c(-c3cccc(Cl)c3Cl)c(CCC#N)cc2c2c1cc([C@H]1[C@H]3C[C@H](CN(c4ccc(C(F)(F)F)cc4)C3=O)N1C(=O)C1CC1)n2[C@H]1[C@H]2CN[C@@H]1C2 (atropisomer, axis not shown; (Ra)) [Example 120a, 3-((Ra)-1-((1R,4R,5S)-2-Azabicyclo[2.1.1]hexan-5-yl)-2-((1R,5R,7R)-6-(cyclopropanecarbonyl)-2-oxo-3-(4-(trifluoromethyl)phenyl)-3,6-diazabicyclo[3.2.1]octan-7-yl)-7-(2,3-dichlorophenyl)-6-fluoro-4-methyl-1H-pyrrolo[3,2-c]quinolin-8-yl)propanenitrile]
- G12D_exchange (KRAS_G12D exchange assay IC50) [2]: ††
- G12V_exchange (KRAS_G12V exchange assay IC50) [3]: †

Compound: Cc1nc2c(F)c(-c3cccc(Cl)c3Cl)c(CCC#N)cc2c2c1cc([C@H]1[C@H]3C[C@H](C(=O)N(c4ccc(C(F)(F)F)cc4)C3)N1C(=O)C1CC1)n2[C@H]1[C@H]2CN[C@@H]1C2 (atropisomer, axis not shown; (Ra)) [Example 120b, 3-((Ra)-1-((1R,4R,5S)-2-Azabicyclo[2.1.1]hexan-5-yl)-2-((1S,5R,7R)-6-(cyclopropanecarbonyl)-4-oxo-3-(4-(trifluoromethyl)phenyl)-3,6-diazabicyclo[3.2.1]octan-7-yl)-7-(2,3-dichlorophenyl)-6-fluoro-4-methyl-1H-pyrrolo[3,2-c]quinolin-8-yl)propanenitrile]
- G12D_exchange (KRAS_G12D exchange assay IC50) [2]: †
- G12V_exchange (KRAS_G12V exchange assay IC50) [3]: †

Compound: [2H]C1([2H])[C@@H]2C[C@H](CN1c1ncc(C(C)C)s1)N(C(=O)C1CC1)[C@H]2c1cc2c(C)nc3c(F)c(-c4cccc(Cl)c4Cl)c(CCC#N)cc3c2n1[C@H]1[C@H]2CN[C@@H]1C2 (atropisomer, axis not shown; (Ra)) [Example 123, 3-((Ra)-1-((1R,4R,5S)-2-Azabicyclo[2.1.1]hexan-5-yl)-2-((1 S,5R,7R)-6-(cyclopropanecarbonyl)-3-(5-isopropylthiazol-2-yl)-3,6-diazabicyclo[3.2.1]octan-7-yl-2,2-d2)-7-(2,3-dichlorophenyl)-6-fluoro-4-methyl-1H-pyrrolo[3,2-c]quinolin-8-yl)propanenitrile]
- G12D_exchange (KRAS_G12D exchange assay IC50) [2]: ††
- G12V_exchange (KRAS_G12V exchange assay IC50) [3]: †

Compound: COC(=O)N1[C@@H]2C[C@@H](CN(c3nccnc3OC)C2)[C@@H]1c1cc2c(C)nc3c(F)c(-c4cccc(Cl)c4Cl)c(CCC#N)cc3c2n1[C@H]1[C@H]2CN[C@@H]1C2 (atropisomer, axis not shown; (Ra)) [Example 125, Methyl (1 S,5R,7R)-7-((Ra)-1-((1R,4R,5S)-2-azabicyclo[2.1.1]hexan-5-yl)-8-(2-cyanoethyl)-7-(2,3-dichlorophenyl)-6-fluoro-4-methyl-1H-pyrrolo[3,2-c]quinolin-2-yl)-3-(3-methoxypyrazin-2-yl)-3,6-diazabicyclo[3.2.1]octane-6-carboxylate]
- Papp A→B at 120 min, 50 μM [1]: > 1 ×10⁻⁶ cm/s
- G12V_exchange (KRAS_G12V exchange assay IC50) [3]: †

Compound: COC(=O)N1[C@@H]2C[C@@H](CN(c3ncc(OCC4CC4)cn3)C2)[C@@H]1c1cc2c(C)nc3c(F)c(-c4cccc(Cl)c4Cl)c(CCC#N)cc3c2n1[C@H]1[C@H]2CN[C@@H]1C2 (atropisomer, axis not shown; (Ra)) [Example 126, Methyl (1 S,5R,7R)-7-((Ra)-1-((1R,4R,5S)-2-azabicyclo[2.1.1]hexan-5-yl)-8-(2-cyanoethyl)-7-(2,3-dichlorophenyl)-6-fluoro-4-methyl-1H-pyrrolo[3,2-c]quinolin-2-yl)-3-(5-(cyclopropylmethoxy)pyrimidin-2-yl)-3,6-diazabicyclo[3.2.1]octane-6-carboxylate]
- Papp A→B at 120 min, 50 μM [1]: ≤ 0.5 ×10⁻⁶ cm/s
- G12V_exchange (KRAS_G12V exchange assay IC50) [3]: †

Compound: COC(=O)N1[C@@H]2C[C@@H](CN(c3cnc(C#N)cn3)C2)[C@@H]1c1cc2c(C)nc3c(F)c(-c4cccc(Cl)c4Cl)c(CCC#N)cc3c2n1[C@H]1[C@H]2CN[C@@H]1C2 (atropisomer, axis not shown; (Ra)) [Example 127, Methyl (1 S,5R,7R)-7-((Ra)-1-((1R,4R,5S)-2-azabicyclo[2.1.1]hexan-5-yl)-8-(2-cyanoethyl)-7-(2,3-dichlorophenyl)-6-fluoro-4-methyl-1H-pyrrolo[3,2-c]quinolin-2-yl)-3-(5-cyanopyrazin-2-yl)-3,6-diazabicyclo[3.2.1]octane-6-carboxylate]
- Papp A→B at 120 min, 50 μM [1]: ≤ 0.5 ×10⁻⁶ cm/s
- G12V_exchange (KRAS_G12V exchange assay IC50) [3]: †

Compound: Cc1nc2c(F)c(-c3cccc(Cl)c3Cl)c(CCC#N)cc2c2c1cc([C@H]1[C@H]3C[C@H](CN(c4cc(C(C)(F)F)ncn4)C3)N1C(=O)C1(F)CC1)n2[C@H]1[C@H]2CN[C@@H]1C2 (atropisomer, axis not shown; (Ra)) [Example 128, 3-((Ra)-1-((1R,4R,5S)-2-azabicyclo[2.1.1]hexan-5-yl)-7-(2,3-dichlorophenyl)-2-((1S,5R,7R)-3-(6-(1,1-difluoroethyl)pyrimidin-4-yl)-6-(1-fluorocyclopropane-1-carbonyl)-3,6-diazabicyclo[3.2.1]octan-7-yl)-6-fluoro-4-methyl-1H-pyrrolo[3,2-c]quinolin-8-yl)propanenitrile]
- Papp A→B at 120 min, 50 μM [1]: ≤ 0.5 ×10⁻⁶ cm/s
- G12V_exchange (KRAS_G12V exchange assay IC50) [3]: †
